Molecular target: Monoacylglycerol lipase ABHD6 (Mus musculus) (UniProt Q8R2Y0)
Test: ABHD6 inhibition in mouse brain after dosing, late-stage follow-up, in vivo study for DAGLb inhibitor project, gel-based competitive ABPP, fluorescence (AID 602347)
Settings: stronger effect = higher value, dose or concentration not given here

Monoacylglycerol lipase ABHD6 (Mus musculus), sequence (Q8R2Y0 whole entry, looked up): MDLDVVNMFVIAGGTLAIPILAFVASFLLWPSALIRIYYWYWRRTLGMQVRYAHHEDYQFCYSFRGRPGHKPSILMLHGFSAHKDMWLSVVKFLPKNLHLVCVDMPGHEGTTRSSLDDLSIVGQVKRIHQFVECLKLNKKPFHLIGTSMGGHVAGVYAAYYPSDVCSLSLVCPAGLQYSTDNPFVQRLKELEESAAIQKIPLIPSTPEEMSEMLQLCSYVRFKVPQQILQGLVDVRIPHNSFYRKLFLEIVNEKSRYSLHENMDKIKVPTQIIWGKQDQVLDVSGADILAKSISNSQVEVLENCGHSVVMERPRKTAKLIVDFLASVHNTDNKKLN

Row | Compound | inhibition (with FP-Rh probe) [%] | inhibition (with HT-01 probe) [%]
1 | O=C(N1CCCCC1Cc1ccccc1)n1cc(-c2ccc(-c3ccccc3)cc2)nn1 (stereo unspecified) | 100 | 100
2 | COc1ccccc1-c1ccc(-c2cn(C(=O)N3CCCCC3Cc3ccccc3)nn2)cc1 (stereo unspecified) | 100 | 100
3 | O=C(N1CCCCC1Cc1ccccc1)n1cc(-c2ccc(-c3ccccc3C(F)(F)F)cc2)nn1 (stereo unspecified) | 95 | 95

Reference: PubChem BioAssay AID602347 (The Scripps Research Institute Molecular Screening Center, 2012)
